Source: patent US9186421B2, “Establishment of rhesus monkey model of autoimmunity type 1 diabetes” (West China Hospital, Sichuan University, priority 2010, dated 2015)

Legend:
[1] = tested on: rhesus monkeys; experiment: Diabetes model prepared by low dose STZ induction; assay type: in vivo, rhesus monkey
Description: Low dose of STZ was administered intravenously for 5 consecutive days, at a dose of 15-30 mg/kg per time; and administrated again on the 7th day and 14th day after last administration. Fasting glucose was observed once each week.
6 rhesus monkeys were used to prepare models according to the method of the present invention and 4 models were successfully prepared. […]

[2] = tested on: rhesus monkey model of autoimmune type 1 diabetes; experiment: Insulin treatment of the rhesus monkey model of autoimmune type 1 diabetes; assay type: in vivo
Description: At present, insulin injection is the main treatment method of autoimmune type 1 diabetes. Insulin was applied to the rhesus monkey model of autoimmune type 1 diabetes in this experiment. The specific way was as follows:
1. According to the habit of eating twice per day of rhesus monkeys, different types of insulin were injected twice a day (9:30 am & 17:30 pm) in different doses, applied to the autoimmune type 1 diabetes model prepared by Example 1 of the present invention: combined treatment of (1) long-acting insulin: porcine insulin (protamine zinc insulin) produced by Wanbang Company (Xuzhou, China) and (2) short-acting insulin: ordinary porcine insulin produced by Wanbang Company (Xuzhou, China).
2. Initially, low dose of insulin (0.4 U/kg) was injected subcutaneously so as to avoid the occurrence of low blood glucose.
3. The fasting and postprandial glucose levels were monitored. The administration dosage was adjusted according to the blood glucose level, finally allowing the fasting and postprandial blood glucose to be less than 10 mmol/L and glycosylated hemoglobin to be less than 6.5%.

[3] = established model after low dose STZ i.v.
[4] = insulin s.c. twice a day, start 0.4 U/kg, dosage adjusted to blood glucose

Molecule | fasting blood glucose, fluctuation ([1]; after intravenous injection of STZ, 20 or 25 mg/kg per time, days 1-5, 12, 19) [mmol/L] | fasting blood glucose, consistently [1, 3] | serum C-peptide [1, 3] | glucagon expression-positive cells in the islet tissue ([1]; immunohistochemistry, FIG. 3B) | models successfully prepared ([1]; of 6 rhesus monkeys) | fasting and postprandial blood glucose [2, 4] | glycosylated hemoglobin [2, 4] | therapeutic effect on autoimmune type 1 diabetes ([2]; long-acting plus short-acting porcine insulin)
CN(N=O)C(=O)N[C@@H](C=O)[C@@H](O)[C@H](O)[C@H](O)CO [STZ, Streptozotocin] | 3.2 to 17.6 | higher than 11.1 mmol/L | less than 0.3 nM | above 90% | 4 |  |  | 
Insulin: combined treatment of long-acting porcine insulin (protamine zinc insulin) and short-acting ordinary porcine insulin, Wanbang Company |  |  |  |  |  | less than 10 mmol/L | less than 6.5% | better therapeutic effect
